Assay results published in patent US20100166781A1, “HAT ACETYLATION PROMOTERS AND USES OF COMPOSITIONS THEREOF IN PROMOTING IMMUNOGENICITY” (Tapimmune, Inc., priority 2008, published 2010).
“Also recorded” adds a separate entry of the source. Where two headings read alike, the source gives them in different places.

What was measured:
[1] = tested on: tapasin; assay: RT-PCR analysis of APM components: tapasin; conditions: HPV-positive carcinoma cell lines, particularly TAP-deficient cells
[2] = tested on: TAP-1; assay: RT-PCR and Western blot analysis of TAP-1 expression; assay type: cell-based, murine
Procedure: Fifty micrograms of proteins per sample were separated through 6% (p300, CBP and TAP-1) or 15% (β-actin and acetyl-histone H3) SDS-PAGE. Proteins were transferred to a nitrocellulose membrane (Bio-rad, Hercules, Calif.). Blots were blocked with 5% skim milk in PBS and incubated with appropriate Ab dilutions. […] Secondary Ab used was HRP-conjugated goat anti-rabbit secondary Ab (Jackson Immunoresearch Lab., West Grove, Pa.). For the loading controls, anti β-actin mouse monoclonal Ab (Sigma) was used, followed by HRP-conjugated goat anti-mouse secondary Ab (Pierce, Rockford, Ill.). Blots were developed using Lumi-light reagents (Pierce).
Western blot analysis of TAP-1 expression was performed using lysate of cells that were pre-treated with 20 to 200 ng/ml TSA for 24 to 48 hours, and representative data from cells treated with 100 ng/ml TSA for 24 hours (PA and LMD) or 48 hours (TC-1, D11 and A9) are shown in FIG. 4A.

[3] = tested on: TAP-1 promoter; assay: Chromatin immunoprecipitation with anti-RNA pol II antibody, real-time PCR of TAP-1 promoter; assay type: cell-based, murine
Procedure: (§1) As the low level of histone H3 acetylation in TAP-1 promoter seems to contribute to TAP-1 deficiency in carcinomas, a further investigation was conducted to determine whether treatment of TAP-deficient carcinoma cells with TSA would increase the TAP-1 expression in the cells. […] Relative RNA pol II or acetyl-histone H3 levels were determined as the ratio of copy numbers of the eluted TAP-1 promoter and copy numbers of the corresponding inputs. The smallest ratio was arbitrarily determined as 1. Columns, average of three to six experiments; bars, SEM. *P<0.05 compared with cells that expressed higher MHC class I in the same assay.

[4] = tested on: TAP-2; assay: RT-PCR analysis of APM components: TAP-2; conditions: HPV-positive carcinoma cell lines, particularly TAP-deficient cells
[5] = tested on: A9 tumour; assay: A9 tumor growth in immunodeficient Rag1 mice; assay type: in vivo; conditions: TSA treatment
Procedure: A9 tumor growth was suppressed in C57B1/6 mice treated daily for 20 days with 500 μg/kg of TSA (black bars) as compared to those treated with DMSO vehicle control (white bars). However, TSA treatment had no affect on A9 tumour growth in Ragl^“7” mice.

[6] = tested on: TAP-1 promoter; assay: Luciferase assay in cells stably transfected with pTAP-1-luc construct; assay type: cell-based, murine
Description: A plasmid containing an EGFP gene driven by the TAP-1 promoter (pTAP-1-EGFP) was constructed as described previously. A similar construct containing a luciferase gene driven by the TAP-1 promoter (pTAP-1-luc) was created by inserting the TAP-1 promoter between the Sac I and BgI II sites of pGL4.14[luc2/Hygro] vector (Promega, Madison, Wis.). Several truncated TAP-1 promoter constructs were also made by cloning its 5′-end truncations into pGL4.14[luc2/Hygro] vector. Primers were used for PCR amplifications of the full TAP-1 promoter and its truncations.
TC-1, D11, A9, PA and LMD cells were transfected with the TAP-1 promoter constructs or the promoterless pGL4.14[luc2/Hygro] vector using ExGen 500 in vitro Transfection Reagent (Fermentas). Transient transfectants were analyzed between 12-72 hours after transfection. To obtain stable transfectants, the transfected cells were selected for 3 weeks in the presence of the following concentrations of Hygromycin B (Sigma): 550 ng/ml for TC-1 cells, 250 ng/ml for D11, A9 and LMD cells, 200 ng/ml for PA cells.
Relative luciferase activity (RLA) in transient transfectants was assessed by dual luciferase assay (Promega) within 12-72 hours after transfection. RLA in stable transfectants (3 weeks-1 month post-transfection) was assessed by Bright-Glo luciferase assay (Promega), and determined by subtracting the results with corresponding values obtained from transfection with promoterless pGL4.14[luc2/Hygro] vector alone and by further normalizing the values with copy number of plasmids integrated into the genome of each stable transfectant.

[7] = tested on: LMP-2; assay: RT-PCR analysis of APM components: LMP-2; conditions: HPV-positive carcinoma cell lines, particularly TAP-deficient cells
[8] = tested on: A9 tumor; assay: A9 tumor growth in C57BL/6 syngeneic mice; assay type: in vivo, C57BL/6 mice; conditions: A9 cells s.c., 500 μg/kg daily i.p. for 20 days from day 7, versus DMSO control
Procedure: A total of 3×10^5 cells of TC-1 or A9 in PBS were injected subcutaneously into seven-week-old female C57BL/6 syngeneic mice (Charles River, St. Constant, QC). Mice were assigned to 3 groups of 4 animals. TSA was dissolved in DMSO to a concentration of 0.2 mg/ml. Daily treatment with 50 ul TSA (500 μg/kg) or DMSO (vehicle control) was administered via intraperitoneal injection for 20 days, starting on day 7 after injection with tumor cells. Mice were weighed weekly, and their behavior and food intake were monitored throughout the course of the experiment. Tumors were measured 3 times a week and tumor volume was calculated using the formula: tumor volume=length×width×height×π/6. The study period was determined by the size of the tumors in the A9 group treated with DMSO vehicle control.
TC-1 and A9 cells were cultured in vitro and were passaged less than 8 times before 3×10^5 of each group of the cells were injected subcutaneously into 7 week-old female C57BL/6 syngeneic mice. Daily treatment with TSA or DMSO vehicle control began on day 7 after cells injection, as the animals started to grow palpable A9 tumors. […] No tumor was detected beyond 1 month after injection with less than 3×10^5 TC-1 tumor cells (data not shown).

[9] = tested on: VSV-infected cancer cells; assay type: cell-based, murine; conditions: for enhancement of CTL killing / enhancement of levels of killing: treatment 24 hours prior to VSV infection; for enhancement of CTL killing: effector:target 22:1
[10] = tested on: TAP-1 promoter; assay: Chromatin immunoprecipitation with anti-acetyl-histone H3 antibody, real-time PCR of TAP-1 promoter; assay type: cell-based, murine
Procedure: as §1

[11] = target: surface H-2K^b (Mus musculus, UniProt P01901); assay: Flow cytometric analysis of surface H-2K^b expression; assay type: cell-based, murine
Chain of surface H-2K^b (P01901 whole entry, looked up): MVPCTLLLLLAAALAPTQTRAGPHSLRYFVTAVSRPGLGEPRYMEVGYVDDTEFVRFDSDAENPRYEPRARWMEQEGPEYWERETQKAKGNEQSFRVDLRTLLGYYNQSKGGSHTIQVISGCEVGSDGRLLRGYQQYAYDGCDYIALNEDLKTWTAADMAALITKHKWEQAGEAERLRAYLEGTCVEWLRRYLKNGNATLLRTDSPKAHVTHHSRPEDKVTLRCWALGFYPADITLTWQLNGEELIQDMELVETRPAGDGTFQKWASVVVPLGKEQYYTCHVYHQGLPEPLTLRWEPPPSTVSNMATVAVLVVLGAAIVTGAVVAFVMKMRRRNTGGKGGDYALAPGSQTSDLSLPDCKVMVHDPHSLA
Procedure: Cells untreated (shaded areas) or treated with 100 ng/ml TSA (thick lines), or 50 ng/ml IFN-γ (thin lines), were stained with PE-conjugated anti-H-2K^bmAb. Data are representatives of three experiments.

[12] = tested on: TAP-1 promoter; assay: Chromatin immunoprecipitation with anti-CBP antibody, real-time PCR of 5'-end of TAP-1 promoter; conditions: LMD, D11 and A9 cells, IFN-γ treatment

CC(/C=C/C(=O)NO)=C\[C@@H](C)C(=O)c1ccc(N(C)C)cc1 [TSA, trichostatin A]
expression of tapasin [1]: up-regulation
Optimal dose for optimal induction of TAP-1 expression ([2]; 24 hours in LMD, CMT.64 and B16, 48 hours in D11 and A9): 100 ng/mL
expression of TAP-1 ([2]; RT-PCR and Western blot, 100 ng/ml for 24 h (PA, LMD) or 48 h (TC-1, D11, A9)): up-regulated
TAP-1 expression upon increasing the dose ([2]; Western blot, TAP-deficient cells, 20 to 200 ng/ml for 24 to 48 hours): increasing levels of TAP-1 expression
level of RNA pol II binding to TAP-1 promoter ([3]; TSA treatment, TAP-deficient cells of HPV-positive and prostate carcinoma models): to similar levels as in TAP-expressing cells
recruitment of RNA pol II complex to the TAP-1 promoter ([3]; TSA treatment, most cell lines, particularly TAP-deficient cells): enhanced
expression of TAP-2 [4]: up-regulation
tumour growth [5]: no affect
TAP-1 promoter activity ([6]; HPV-positive carcinoma model, TAP-deficient cells): to similar levels as in TAP-expressing cells
TAP-1 promoter activity (luc expression) ([6]; TAP-deficient cells stably transfected with pTAP-1-luc): increased significantly
TAP-1 promoter activity ([6]; prostate carcinoma model, LMD cells): statistically significant improvement
expression of LMP-2 [7]: up-regulation
tumor growth [8]: suppressed; also recorded: slower
enhancement of CTL killing ([9]; VSV-infected A9 cells): ~7 fold
enhancement of levels of killing ([9]; VSV-infected B16 cells): 20 fold
enhancement of levels of killing ([9]; VSV-infected CMT.64 cells): 5 fold
enhancement of CTL killing ([9]; VSV-infected D11 cells): ~6 fold
enhancement of CTL killing ([9]; VSV-infected TC-1 cells): approximately 1.4 fold
levels of acetyl-histone H3 in TAP-1 promoter ([10]; TSA treatment, all cell lines tested): did not significantly alter
increase of surface expression H-2K^b ([11]; MHC class I-deficient cells, 100 ng/ml TSA): approximately 10 fold
surface H-2K^b levels ([11]; PA and TC-1 cells (originally high surface H-2K)): remained the same

B1: IFN-γ: potent inducer of TAP-1 and surface MHC class I expression in cancer cells, used as positive control (protein, UniProt P01579 24-161, looked up)
Interferon gamma: QDPYVKEAENLKKYFNAGHSDVADNGTLFLGILKNWKEESDRKIMQSQIVSFYFKLFKNFKDDQSIQKSVETIKEDMNVKFFNSNKKKRDDFEKLTNYSVTDLNVQRKAIHELIQVMAELSPAAKTGKRKRSQMLFRG
level of RNA pol II in TAP-1 promoter ([3]; IFN-γ treatment): increased
expression of TAP-2 [4]: inducible
CBP binding to TAP-1 promoter [12]: increase
expression of LMP-2 [7]: inducible
level of killing by CTL ([9]; all VSV-infected cell lines, IFN-γ treatment): maximal induction
level of acetyl-histone H3 in TAP-1 promoter ([10]; IFN-γ treatment): increased
histone H3 acetylation in TAP-1 promoter ([10]; TAP-deficient cells, IFN-γ compared with TSA): to much higher levels than TSA did
surface H-2K^b expression ([11]; all cell lines, 50 ng/ml IFN-γ): increased
